Experimental data from PMC6410080 (Viruses, 2019).
Where two headings read alike, the source gives them in different places.

Assays:
[1] = tested on: SFV; assay: microbe, parasite or virus in culture; format: cell-based, Semliki Forest virus; details: for % inhibition (SFV screen): 10 µM; for IC50: read-out: IC50 SFV (7 h)
[2] = tested on: DENV-2; assay: DENV-2 infection assay / secondary screen (E protein staining); format: cell-based, dengue virus serotype 2; details: for % inhibition (DENV-2 screen): 10 µM, Huh7, MOI 1, 24 h, compared to DMSO-treated controls
[3] = tested on: SINV; assay: microbe, parasite or virus in culture; format: cell-based, Sindbis virus; details: read-out: IC50 SINV
[4] = tested on: DENV-1; assay: microbe, parasite or virus in culture; format: cell-based, dengue virus
[5] = tested on: DENV-3; assay: microbe, parasite or virus in culture; format: cell-based, dengue virus
[6] = tested on: ZIKV; assay: microbe, parasite or virus in culture; format: cell-based, Zika virus
[7] = tested on: YF17D; assay: organism not typed; format: cell-based, yellow fever 17D
[8] = tested on: HCV; assay: microbe, parasite or virus in culture; format: cell-based, hepatitis C virus
[9] = tested on: VSV VLP; assay: microbe, parasite or virus in culture; format: cell-based, vesicular stomatitis virus; details: read-out: IC50 VSV
[10] = tested on: RABV VLP; assay: microbe, parasite or virus in culture; format: cell-based, rabies virus; details: read-out: IC50 RABV
[11] = tested on: H5N1 VLP; assay: microbe, parasite or virus in culture; format: cell-based, influenza H5N1; details: for IC50: read-out: IC50 H5N1
[12] = tested on: EBOV VLP; assay: microbe, parasite or virus in culture; format: cell-based, Ebola virus
[13] = tested on: HIV-1; assay: microbe, parasite or virus in culture; format: cell-based, human immunodeficiency virus type 1; details: for IC50: read-out: IC50 HIV
[14] = tested on: HSV-1; assay: microbe, parasite or virus in culture; format: cell-based, herpes simplex virus 1; details: for IC50: read-out: IC50 HSV (Vero)
[15] = tested on: VACV; assay: microbe, parasite or virus in culture; format: cell-based, vaccinia virus; details: for IC50: read-out: IC50 VACV
[16] = tested on: SFV; format: cell-based, Semliki Forest virus
[17] = tested on: HeLa Kyoto cells
[18] = tested on: HeLa Kyoto cells; details: 10 µM
[19] = tested on: Huh7 cells; details: 10 µM
[20] = tested on: Huh7 cells; assay: MTT assay, Huh7 cells; details: for TC50 DENV-2 (7 + 17 h): Huh7, compounds 7 h then compound-free media 17 h; for TC50 DENV-2 (24 h): Huh7, compounds 24 h
[21] = tested on: viruses/VLPs tested; format: cell-based
[22] = tested on: Huh7 cells; details: human
[23] = in vitro; details: human, % viability (SFV screen)
[24] = in vitro; details: human
[25] = tested on: Renilla luciferase expression (protein synthesis); format: cell-based
[26] = tested on: ZIKV; details: AG129 mice
[27] = Huh7, compounds 7 h then media replaced for 17 h, read-out: IC50 DENV-2 (7 + 17 h)
[28] = Huh7, compounds for entire 24 h, read-out: IC50 DENV-2 (24 h)

SMILES: CC(=O)/C=C1\C(=O)N(C)c2ccccc21 [Supercinnamaldehyde]
- % inhibition (SFV screen) [1]: 89.06%
- % inhibition (DENV-2 screen) [2]: 64.49%
- IC50 [2, 27]: 15.4 µM
- IC50 [2, 28]: 15 µM
- IC50 [3]: 24.9 µM
- IC50 ([4]; read-out: IC50 DENV-1): ~22.7 µM
- IC50 ([5]; read-out: IC50 DENV-3): 12.2 µM
- IC50 ZIKV [6]: No inhibition
- IC50 ([7]; read-out: IC50 YF17D): 7.6 µM
- IC50 ([8]; read-out: IC50 HCV): 15.8 µM
- IC50 [9]: 14.6 µM
- IC50 [10]: 21.6 µM
- IC50 [11]: 17.5 µM
- IC50 ([12]; read-out: IC50 EBOV): 21.2 µM
- IC50 HIV [13]: No inhibition
- IC50 [14]: 25.2 µM
- IC50 VACV [15]: No inhibition
- Activity when added before SFV or 30 and 60 min after internalisation [16]: No difference
- Time of Addition [16]: After fusion
- TC50 SFV (7 h) [17]: 40.5 µM
- TC50 SFV (7h) [17]: 40500 µM
- % viability (SFV screen) [18]: 69.48%
- % viability (DENV-2 screen) [19]: 90.32%
- TC50 DENV-2 (7 + 17 h) [20]: 59.6 µM
- TC50 DENV-2 (24 h) [20]: 25.8 µM

SMILES: C=C1C(=O)O[C@H]2[C@H]1CC/C(C)=C/CC[C@@]1(C)O[C@@H]21 [Parthenolide]
- % inhibition (SFV screen) [1]: 98.23%
- IC50 ([1]; Semliki Forest virus, HeLa Kyoto): 3.3 µM
- inhibition at 10 µM ([1]; Semliki Forest virus, M-HeLa, 7 h, read-out: % inhibition (SFV screen)): 101%
- inhibition at 10 µM ([2]; Dengue virus, DENV2, Huh-7, 24 h, read-out: % inhibition (DENV-2 screen)): 91.2%
- IC50 ([2]; Dengue virus, DENV2, Huh-7, 24 h, read-out: IC50 DENV-2 (7 + 17 h)): 12.2 µM
- IC50 ([2]; Dengue virus, DENV2, Huh-7, 24 h, read-out: IC50 DENV-2 (24 h)): 7.5 µM
- IC50 ([3]; Sindbis virus, HeLa Kyoto): 3.2 µM
- IC50 ([4]; Dengue virus, DENV1, Huh-7, read-out: IC50 DENV-1): 10 µM
- IC50 ([5]; Dengue virus, DENV3, Huh-7, read-out: IC50 DENV-3): 15.8 µM
- IC50 ([6]; Zika virus, Huh-7, read-out: IC50 ZIKV): 6.1 µM
- IC50 ([7]; Huh-7, read-out: IC50 YF17D): 6.4 µM
- IC50 ([8]; Hepatitis C virus, Huh7.5, read-out: IC50 HCV): 5.6 µM
- IC50 ([9]; Vesicular stomatitis virus, HeLa Kyoto, 24 h): 2.6 µM
- IC50 ([10]; Lyssavirus rabies, HeLa Kyoto, 24 h): 3.8 µM
- IC50 ([11]; Influenza A virus, H5N1, HeLa Kyoto, 48 h): 19.4 µM
- IC50 EBOV [12]: Toxic
- IC50 ([13]; Human immunodeficiency virus 1, 24 h): 3.7 µM
- IC50 HSV (Vero) ([14]; virus, Vero cells, 8 h): No inhibition
- IC50 ([15]; Orthopoxvirus vaccinia, HeLa Kyoto, 8 h): 5 µM
- Activity when added before SFV or 30 and 60 min after internalisation [16]: minor but reproducible decrease in activity
- Time of Addition [16]: Before and after fusion
- Viruses Inhibited [21]: Unclear pattern
- TC50 SFV (7 h) ([17]; human, 7 h): 11.7 µM
- TC50 SFV (7h) ([17]; human, 7 h): 11700 µM
- TC50 DENV-2 (7 + 17 h) [22]: 35.8 µM
- TC50 DENV-2 (24 h) ([22]; 24 h): 11.9 µM
- % viability (SFV screen) ([18]; human): 74.22%
- viability at 10 µM [23]: 56.8%
- viability at 10 µM [24]: 71.4%

SMILES: O=[N+]([O-])c1ccc2c(c1)S(=O)(=O)C=C2 [Stattic]
- % inhibition (SFV screen) [1]: 95.82%
- % inhibition (DENV-2 screen) [2]: 87.08%
- IC50 [2, 27]: 3 µM
- IC50 [2, 28]: 0.9 µM
- IC50 [3]: 3.6 µM
- IC50 ([6]; read-out: IC50 ZIKV): 4 µM
- IC50 ([7]; read-out: IC50 YF17D): 4.9 µM
- IC50 ([8]; read-out: IC50 HCV): 3.7 µM
- IC50 [10]: 3.2 µM
- IC50 H5N1 [11]: Toxic
- IC50 EBOV [12]: Toxic
- IC50 [13]: 3.2 µM
- IC50 [14]: 5.2 µM
- IC50 [15]: 4.1 µM
- Decrease of Renilla signal (protein synthesis) [25]: more than 50%
- Inhibition of protein synthesis at lower concentrations [25]: lose their inhibitory activity on protein synthesis
- Activity when added before SFV or 30 and 60 min after internalisation [16]: No difference
- Time of Addition [16]: After fusion
- Viruses Inhibited [21]: All tested
- TC50 SFV (7 h) [17]: 7.8 µM
- TC50 SFV (7h) [17]: 7800 µM
- % viability (SFV screen) [18]: 64.89%
- % viability (DENV-2 screen) [19]: 60.49%
- TC50 DENV-2 (7 + 17 h) [20]: 17.3 µM
- TC50 DENV-2 (24 h) [20]: 9.7 µM

SMILES: Cc1ccc(S(=O)(=O)N[C@@H](Cc2ccccc2)C(=O)CCl)cc1 [N-p-Tosyl-L-PCK, N-p-Tosyl-L-phenylalanine chloromethyl ketone]
- % inhibition (SFV screen) [1]: 82.34%
- IC50 [1]: 10.7 µM
- % inhibition (DENV-2 screen) [2]: 60.35%
- IC50 [2, 27]: 19.6 µM
- IC50 [2, 28]: 7.5 µM
- IC50 [3]: 11.9 µM
- IC50 ([4]; read-out: IC50 DENV-1): 25.6 µM
- IC50 ([5]; read-out: IC50 DENV-3): 24.2 µM
- IC50 ([6]; read-out: IC50 ZIKV): 24.3 µM
- IC50 ([7]; read-out: IC50 YF17D): 4.6 µM
- IC50 ([8]; read-out: IC50 HCV): ~13 µM
- IC50 [9]: 11.5 µM
- IC50 [10]: 15 µM
- IC50 H5N1 [11]: No inhibition
- IC50 EBOV [12]: No inhibition
- IC50 [13]: 12.5 µM
- IC50 HSV (Vero) [14]: No inhibition
- IC50 [15]: 14.4 µM
- Decrease of Renilla signal (protein synthesis) [25]: more than 50%
- Inhibition of protein synthesis at lower concentrations [25]: partially inhibits protein synthesis but not virus infection
- Activity when added before SFV or 30 and 60 min after internalisation [16]: act exclusively before (or at the stage of) fusion
- Time of Addition [16]: Before fusion
- Viruses Inhibited [21]: Unclear pattern
- TC50 SFV (7 h) [17]: 42.7 µM
- TC50 SFV (7h) [17]: 42700 µM
- % viability (SFV screen) [18]: 95.24%
- % viability (DENV-2 screen) [19]: 58.91%
- TC50 DENV-2 (7 + 17 h) [20]: 24.2 µM
- TC50 DENV-2 (24 h) [20]: 31.7 µM

SMILES: CC(C)OC(=O)[C@H](C)N[P@](=O)(OC[C@H]1O[C@@H](n2ccc(=O)[nH]c2=O)[C@](C)(F)[C@@H]1O)Oc1ccccc1 [Sofosbuvir]
- Infectious virus in the blood at day 7 p.i. ([26]; immunofocus assay): cleared infectious virus from the blood by day 7
- ZIKV blood titres at day 1 p.i. ([26]; qRT-PCR and immunofocus assay, vs untreated): significantly reduced blood titres
